According to publication PMC10777851, “SMT-738: a novel small-molecule inhibitor of bacterial lipoprotein transport targeting Enterobacteriaceae” (Antimicrobial Agents and Chemotherapy, 2023):
≈ marks a conversion by molar mass, not a printed value. Where “and” joins values, the source holds several entries; their conditions need not be identical. Equal entries are not always repeated.

Tests used:
K. pneumoniae = assay: MIC by broth microdilution (CLSI) against K. pneumoniae; format: cell-based, Klebsiella pneumoniae
Experimental: MIC tests were performed by broth microdilution in-line with CLSI susceptibility testing standards ([20], [21]) either in-house or at IHMA (Europe and USA) or JMI Laboratories using cation-adjusted Mueller Hinton Broth.

Protein binding, human = format: in vitro ADME
[1] = system: KPM (K. pneumoniae NCTC 13438); assay: Frequency of resistance determination, K. pneumoniae; format: cell-based, Klebsiella pneumoniae; conditions: for LoD Range: experiments with no colonies observed; for FoR Range: experiments with colonies observed
Experimental: The FoR of bacterial strains to test compounds was determined by plating aliquots of overnight cultures onto MH-agar plates containing dilutions of the test compound at various multiples of reference MIC as previously determined. Total viable counts of the overnight cultures were determined by spotting 10–20 µL of decimal dilutions in 1× phosphate-buffered saline (PBS) onto non-selective agar. Assay plates were incubated for up to 48 h with colonies being enumerated every 24 h. FoR was determined by dividing the number of colonies observed by the total number of viable cells plated. Representative colonies were then picked and streaked onto selective agar to confirm resistance and obtain resistant isolates. Isolates growing on selective agar were then used to initiate overnight cultures, bacteria pelleted by centrifugation, supernatant removed, and pellets stored at −80°C for subsequent DNA extraction and whole-genome sequencing. Genomic DNA was extracted using the DNeasy Blood and Tissue Kit (Qiagen), quantified using the Quant-iT TM PicoGreen TM dsDNA Assay Kit (Thermo Fisher Scientific), and normalized to 0.2 ng/µL in nuclease-free water. Library preparation and barcode addition were with the Nextera XT DNA Library Prep Kit (Illumina). KAPA Pure beads (Roche) were used for DNA purification. Samples were pooled to achieve 100× coverage of each sample and run on an Illumina Nextseq 500/550 Mid Output Kit v2.5 (150 cycles) (Illumina).

[2] = 100 MDR clinical isolates incl. ESBL and CRE

Cc1cnccc1-c1[nH]c(N)nc1-c1ccc2c(c1)N(C(=O)C(C)(C)N)CCO2 [SMT-738]
MIC Range K. pneumoniae (NDM) (K. pneumoniae; 15 clinical MDR NDM isolates (NDM-1, NDM-4, NDM-5) from India (2018)): 0.5 to 1 µg/mL | MIC50 K. pneumoniae (K. pneumoniae; [2]): 1 µg/mL (≈ 2.55 µM) | MIC90 K. pneumoniae (K. pneumoniae; [2]): 2 µg/mL (≈ 5.1 µM) | MIC range K. pneumoniae (K. pneumoniae; [2]): 0.25 to 8 µg/mL | MIC (K. pneumoniae; K. pneumoniae ATCC 43816): 0.5 µg/mL (≈ 1.27 µM) | MIC (20% HS) (K. pneumoniae; K. pneumoniae IHMA 1769429, 20% human serum): 1 µg/mL (≈ 2.55 µM) | MIC (50% HS) (K. pneumoniae; K. pneumoniae IHMA 1769429, 50% human serum): 2 µg/mL (≈ 5.1 µM) | MIC (no HS) (K. pneumoniae; K. pneumoniae IHMA 1769429, no human serum): 2 µg/mL (≈ 5.1 µM) | MIC (20% HS) (K. pneumoniae; K. pneumoniae IHMA 1770556, 20% human serum): 0.5 µg/mL (≈ 1.27 µM) | MIC (50% HS) (K. pneumoniae; K. pneumoniae IHMA 1770556, 50% human serum): 1 µg/mL (≈ 2.55 µM) | MIC (no HS) (K. pneumoniae; K. pneumoniae IHMA 1770556, no human serum): 1 µg/mL (≈ 2.55 µM) | MIC (K. pneumoniae; K. pneumoniae NCTC 13438 (MDR, Class A KPC)): 1.56 µM and 0.61 µg/mL | MICref (K. pneumoniae; Kpm13438, reference MIC of the FoR experiments): 3.13 µM and 1.22 µg/mL | protein binding (Protein binding, human): 62.7% | LoD Range ([1]; 4× MICref, 24 h): < 2.26E-09 | FoR Range ([1]; 4× MICref, 48 h): 1.50E-09 | LoD Range ([1]; 4× MICref, 48 h): < 2.26E-09 | LoD Range ([1]; 8× MICref, 24 h): < 2.26E-09 | FoR Range ([1]; 8× MICref, 48 h): 3.75E-10 | LoD Range ([1]; 8× MICref, 48 h): < 2.26E-09 | Frequency of resistance (FoR) ([1]; single-step selection at 4× and 8× the MIC, after 24 and 48 h): ≤ 10^−9
